Experimental data taken from patent publication US20240316074A1 (priority 2021, published 2024).
In brackets after ≈: the same amount, converted by molar mass.

Experiments:
[1] = target: T1, SARS-CoV-2 spike protein S1 subunit (Severe acute respiratory syndrome coronavirus 2, UniProt P0DTC2); type: binding
T1 construct: Recombinant SARS-CoV-2 spike protein S1 subunit (˜72 kDa) containing an N-terminal His-tag; purchased RayBiotech (Peachtree Corners, GA)

[2] = target: T2, transporter ABCG2 (also called BCRP) (Homo sapiens, UniProt Q9UNQ0); details: cited from earlier work
T2 sequence (Q9UNQ0 1-655): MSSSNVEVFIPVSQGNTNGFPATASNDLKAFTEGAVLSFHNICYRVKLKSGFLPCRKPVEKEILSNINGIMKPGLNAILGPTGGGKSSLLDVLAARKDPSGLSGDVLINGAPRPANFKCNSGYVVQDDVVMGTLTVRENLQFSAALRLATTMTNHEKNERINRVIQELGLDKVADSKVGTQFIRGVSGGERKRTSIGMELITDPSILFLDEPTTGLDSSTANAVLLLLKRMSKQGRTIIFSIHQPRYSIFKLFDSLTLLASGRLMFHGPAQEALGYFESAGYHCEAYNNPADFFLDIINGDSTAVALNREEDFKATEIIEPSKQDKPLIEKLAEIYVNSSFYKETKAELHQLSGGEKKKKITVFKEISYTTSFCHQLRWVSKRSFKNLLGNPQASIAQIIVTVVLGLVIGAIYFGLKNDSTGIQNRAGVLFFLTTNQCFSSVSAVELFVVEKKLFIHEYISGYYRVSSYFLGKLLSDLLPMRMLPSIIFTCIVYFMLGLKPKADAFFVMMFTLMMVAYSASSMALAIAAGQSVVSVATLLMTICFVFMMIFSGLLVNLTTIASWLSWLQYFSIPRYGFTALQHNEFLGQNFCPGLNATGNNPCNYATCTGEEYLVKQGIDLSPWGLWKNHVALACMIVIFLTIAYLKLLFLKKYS

[3] = beagle dogs, oral, 1 mg/kg; cited from earlier work
[4] = human volunteers, oral, 0.063 mg/kg; cited from earlier work
SARS-CoV-2 (WA1/2020) [5] = assay: microbe, parasite or virus in culture; type: cell-based; details: Severe acute respiratory syndrome coronavirus 2, Vero C1008
SARS-CoV-2 (WA1/2020) [6] = type: cell-based
[7] = target: T1, SARS-CoV-2 spike protein S1 subunit; assay: Equilibrium dissociation constants by rapid equilibrium dialysis; type: binding; details: 37° C., PBS pH 7.2
Description: Equilibrium dissociation constants. The affinity constants for the binding of active compounds to the spike protein S1 subunit were determined by rapid equilibrium dialysis. First, the optimum time for full equilibration of the RED device obtained from ThermoFisher (Waltham, MA) was determined with each of the compounds by adding 1 μM spike protein in buffer (300 μL) to the protein chamber and adding blank phosphate buffered saline, pH 7.2 (500 μL) to the buffer chamber. CBGA or CBDA was spiked into the protein chamber at a final concentration of 2.5 μM. […] After centrifugation at 18,000 g for 30 min, the supernatant was removed and ligand concentration was measured using UHPLC-MS/MS. Next, the equilibrium dissociation constants of CBGA and CBDA were determined by incubating the spike protein S1 subunit with different concentrations of the ligands ranging from 0.05-500 μM in triplicate. After 5 h for CBGA or 4 h for CBDA, the concentrations of each ligand in the sample and buffer chambers were measured using UHPLC-MS/MS as described above. Data analysis and fitting was carried out using Microsoft Excel (Seattle, WA) and KaleidaGraph v4.1 (Reading, PA).

SARS-CoV-2 S1 protein = target: T3, SARS-CoV-2 S1 protein (Severe acute respiratory syndrome coronavirus 2, UniProt P0DTC2); assay: MagMASS competition assay with SBP-1 (binding site determination)
T3 construct: Recombinant SARS-CoV-2 spike protein S1 subunit (˜72 kDa) containing an N-terminal His-tag; purchased RayBiotech (S1); LifeTein (SBP-1 peptide)

Structure (SMILES)	Fold Peak Area Enrichment, Standards mixture [1]	Fold peak area enrichment [1]	binding in competitive binding MagMASS assays [1]	further results
CCCCCc1cc(O)c2c(c1)OC(C)(CCC=C(C)C)C=C2 (stereo not drawn) [CBC, Cannabichromene]	2.9 ± 0.75	2.9 ± 0.75	weak or no binding	–
C=C(C)[C@@H]1CCC(C)=C[C@H]1c1c(O)cc(CCCCC)cc1O [CBD, Cannabidiol]	2.9 ± 0.72	2.9 ± 0.72	weak or no binding	inhibition of the transporter ABCG2 [2]: inhibitors
C=C(C)[C@@H]1CCC(C)=C[C@H]1c1c(O)cc(CCCCC)cc1OC [CBD-OMe]	–	–	–	Fold Peak Area Enrichment, Pure compound [1]: 1.5 ± 0.12
C=C(C)[C@@H]1CCC(C)=C[C@H]1c1c(O)cc(CCCCC)c(C(=O)O)c1O [CBDA, Cannabidiolic acid]	12.2 ± 0.52	12.2 ± 0.52	–	Fold Peak Area Enrichment, Extract #5 [1]: 15.0 ± 0.5; Fold Peak Area Enrichment, Pure compound [1]: 15.5 ± 1.1; bioavailability relative to CBD [3]: 2 fold; serum levels [3]: up to 1.42 μM; tolerability [3]: well tolerated; maximum plasma concentrations [4]: 0.21 µM; IC50 (SARS-CoV-2 (WA1/2020) [5]): 24 µg/mL (≈ 66.9 µM); SARS-CoV-2 viral RNA in cells (anti-dsRNA staining) (SARS-CoV-2 (WA1/2020) [6]): absence of SARS-CoV-2 viral RNA; Kd [7]: 5.6 ± 2.2 µM; substrate of the efflux transporter ABCG2 [2]: substrate
C=C(C)[C@@H]1CCC(C)=C[C@H]1c1c(O)cc(CCC)cc1O [CBDV, Cannabidivarin]	1.6 ± 0.17	1.6 ± 0.17	–	–
CCCCCc1cc(O)c(C/C=C(\C)CCC=C(C)C)c(O)c1 [CBG, Cannabigerol]	3.4 ± 0.82	3.4 ± 0.82	weak or no binding	inhibition of the transporter ABCG2 [2]: inhibitors
CCCCCc1cc(O)c(C/C=C(\C)CCC=C(C)C)c(OC)c1 [CBG-OMe]	–	–	–	Fold Peak Area Enrichment, Pure compound [1]: 1.8 ± 0.07
CCCCCc1cc(O)c(C/C=C(\C)CCC=C(C)C)c(O)c1C(=O)O [CBGA, Cannabigerolic acid]	20.5 ± 0.51	20.5 ± 0.51	–	Fold Peak Area Enrichment, Pure compound [1]: 10.9 ± 1.3; IC50 (SARS-CoV-2 (WA1/2020) [5]): 37 µg/mL (≈ 103 µM); SARS-CoV-2 viral RNA in cells (anti-dsRNA staining) (SARS-CoV-2 (WA1/2020) [6]): absence of SARS-CoV-2 viral RNA; Kd [7]: 19.8 ± 2.7 µM
CCCCCc1cc(O)c2c(c1)OC(C)(C)c1ccc(C)cc1-2 [CBN, Cannabinol]	3.4 ± 0.78	3.4 ± 0.78	weak or no binding	–
CCCCCc1cc2c(c(O)c1C(=O)O)-c1cc(C)ccc1C(C)(C)O2 [CBNA, Cannabinolic acid]	–	5.6 ± 1.4	–	–
Cc1ccc(NC(=O)c2ccc(CN3CCN(C)CC3)cc2)cc1Nc1nccc(-c2cccnc2)n1 [Imatinib, imatinib]	–	–	–	binding to the immobilized S1 protein in the MagMASS assay [1]: no binding
CCCCCc1cc2c(c(O)c1C(=O)O)[C@@H]1C=C(C)CC[C@H]1C(C)(C)O2 [THCA-A, Tetrahydrocannabinolic acid]	16.7 ± 2.2	16.7 ± 2.2	–	Fold Peak Area Enrichment, Pure compound [1]: 19.7 ± 2.0
C=CC(C)(C)c1cc(/C=C/C(=O)c2ccc(O)cc2)c(OC)cc1O [licochalcone A]	–	–	–	binding in the presence of SBP-1 (SARS-CoV-2 S1 protein; 2.8 μM SBP-1): reduced; MagMASS peak area enrichment lowered when SBP-1 was added (SARS-CoV-2 S1 protein; SBP-1 added to incubation with active S1 protein): 3 fold
COc1c(C)c2c(c(O)c1C/C=C(\C)CCC(=O)O)C(=O)OC2 [mycophenolic acid]	–	–	–	binding to the immobilized S1 protein in the MagMASS assay [1]: no binding
CCN(CC)CCCC(C)Nc1c2ccc(Cl)cc2nc2ccc(OC)cc12 (stereo not drawn) [quinacrine]	–	–	–	binding to the immobilized S1 protein in the MagMASS assay [1]: no binding
CCCCCc1cc(O)c2c(c1)OC(C)(C)[C@@H]1CC=C(C)C[C@@H]21 [Δ^8-THC, Δ^8-Tetrahydrocannabinol]	3.1 ± 0.81	3.1 ± 0.81	weak or no binding	–
CCCCCc1cc(O)c2c(c1)OC(C)(C)[C@@H]1CCC(C)=C[C@@H]21 [Δ^9-THC, Δ^9-Tetrahydrocannabinol]	3.0 ± 0.77	3.0 ± 0.77	weak or no binding	–
